Test results as given in US12319672B2, “Alpha-D-galactopyranoside derivatives” (Idorsia Pharmaceuticals Ltd, priority 2019, dated 2025).
pIC50: −log10 of the molar value.

Assays:
[1] = molecular target: human Gal-3 (hGal-3) (Homo sapiens (Human), UniProt P17931); experiment: Competitive binding assay: binding of biotinylated hGal-3 to microplate-adsorbed asialofetuin (ASF); details: Activity on hGal-3; mean values of several measurements
Procedure, shortened: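 Compounds in DMSO dilution series competed with 300-1000 ng/mL biotinylated hGal-3 for asialofetuin adsorbed on the plate (3 h, 4° C). Streptavidin-peroxidase at 80 ng/mL (1 h, 4° C) with ABTS gave a spectrophotometric read-out, and IC50 was reported as the mean of repeat runs.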

[2] = molecular target: human Gal-1 (hGal-1); experiment: Competitive binding assay: binding of biotinylated hGal-1 to microplate-adsorbed asialofetuin (ASF); details: Activities on hGal-1; mean values of several measurements
Chain of human Gal-1 (hGal-1) (P09382 2-135 limits assumed): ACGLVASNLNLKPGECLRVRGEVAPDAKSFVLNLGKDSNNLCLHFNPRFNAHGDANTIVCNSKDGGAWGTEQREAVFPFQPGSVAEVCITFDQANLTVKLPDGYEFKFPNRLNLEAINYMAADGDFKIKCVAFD
Procedure, shortened: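 Spectrophotometric readout (streptavidin-peroxidase, ABTS) of biotinylated galectin retained on ASF-coated wells. Biotinylated hGal-1 or hGal-3, 300-1000 ng/mL, co-incubated with test compound 3 h at 4° C, then washed. Mean IC50 from repeat runs.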

Chain of human Gal-3 (hGal-3) (P17931 whole entry): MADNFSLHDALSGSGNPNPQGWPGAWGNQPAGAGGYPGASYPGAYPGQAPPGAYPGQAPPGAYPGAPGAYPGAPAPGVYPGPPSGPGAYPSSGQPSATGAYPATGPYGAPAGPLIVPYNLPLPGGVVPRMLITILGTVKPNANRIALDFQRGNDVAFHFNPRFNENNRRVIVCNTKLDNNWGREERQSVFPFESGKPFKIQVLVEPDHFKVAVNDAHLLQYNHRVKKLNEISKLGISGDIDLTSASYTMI

Row | Compound | pIC50 [1] | pIC50 [2]
1 | OC[C@H]1O[C@H](Cc2cc(C3CCNCC3)on2)[C@H](O)[C@@H](n2cc(-c3cc(F)c(F)c(F)c3)nn2)[C@H]1O [Example 3.08, (2R,3R,4R,5R,6R)-2-(hydroxymethyl)-6-((5-(piperidin-4-yl)isoxazol-3-yl)methyl)-4-(4-(3,4,5-trifluorophenyl)-1H-1,2,3-triazol-1-yl)tetrahydro-2H-pyran-3,5-diol] | 6.54 | 4.90
2 | CC(=O)N1CCC(C2=NO[C@@H](C[C@H]3O[C@H](CO)[C@H](O)[C@H](n4cc(-c5cc(F)c(F)c(F)c5)nn4)[C@H]3O)C2)CC1 [Example 3.10, 1-(4-((R)-5-(((2R,3R,4R,5R,6R)-3,5-dihydroxy-6-(hydroxymethyl)-4-(4-(3,4,5-trifluorophenyl)-1H-1,2,3-triazol-1-yl)tetrahydro-2H-pyran-2-yl)methyl)-4,5-dihydroisoxazol-3-yl)piperidin-1-yl)ethan-1-one] | 6.21 | 5.26
3 | CC(=O)N1CCC(C2=NO[C@H](C[C@H]3O[C@H](CO)[C@H](O)[C@H](n4cc(-c5cc(F)c(F)c(F)c5)nn4)[C@H]3O)C2)CC1 [Example 3.11, 1-(4-((S)-5-(((2R,3R,4R,5R,6R)-3,5-dihydroxy-6-(hydroxymethyl)-4-(4-(3,4,5-trifluorophenyl)-1H-1,2,3-triazol-1-yl)tetrahydro-2H-pyran-2-yl)methyl)-4,5-dihydroisoxazol-3-yl)piperidin-1-yl)ethan-1-one] | 6.82 | 5.86
4 | CO[C@@H]1[C@@H](n2cc(-c3cc(F)c(F)c(F)c3)nn2)[C@@H](O)[C@@H](CO)O[C@@H]1C[C@@H]1CC(C2CCN(C(C)=O)CC2)=NO1 [Example 3.12, 1-(4-((S)-5-(((2R,3R,4S,5R,6R)-5-hydroxy-6-(hydroxymethyl)-3-methoxy-4-(4-(3,4,5-trifluorophenyl)-1H-1,2,3-triazol-1-yl)tetrahydro-2H-pyran-2-yl)methyl)-4,5-dihydroisoxazol-3-yl)piperidin-1-yl)ethan-1-one] | 7.15 | 6.28
5 | CO[C@@H]1[C@@H](n2cc(-c3cc(F)c(F)c(F)c3)nn2)[C@@H](O)[C@@H](CO)O[C@@H]1C[C@H]1CC(C2CCN(C(C)=O)CC2)=NO1 [Example 3.13, 1-(4-((R)-5-(((2R,3R,4S,5R,6R)-5-hydroxy-6-(hydroxymethyl)-3-methoxy-4-(4-(3,4,5-trifluorophenyl)-1H-1,2,3-triazol-1-yl)tetrahydro-2H-pyran-2-yl)methyl)-4,5-dihydroisoxazol-3-yl)piperidin-1-yl)ethan-1-one] | 6.17 | 5.40
6 | CC(=O)O[C@@H]1[C@@H](n2cc(-c3cc(F)c(F)c(F)c3)nn2)[C@@H](O)[C@@H](CO)O[C@@H]1Cc1cc(C2CCNCC2)on1 [Example 3.15, (2R,3R,4S,5R,6R)-5-hydroxy-6-(hydroxymethyl)-2-((5-(piperidin-4-yl)isoxazol-3-yl)methyl)-4-(4-(3,4,5-trifluorophenyl)-1H-1,2,3-triazol-1-yl)tetrahydro-2H-pyran-3-yl acetate] | 6.85 | 4.87
7 | CO[C@@H]1[C@@H](n2cc(-c3cc(F)c(F)c(F)c3)nn2)[C@@H](O)[C@@H](CO)O[C@@H]1Cc1cc(C2CCNCC2)on1 [Example 3.16, (2R,3R,4S,5R,6R)-2-(hydroxymethyl)-5-methoxy-6-((5-(piperidin-4-yl)isoxazol-3-yl)methyl)-4-(4-(3,4,5-trifluorophenyl)-1H-1,2,3-triazol-1-yl)tetrahydro-2H-pyran-3-ol] | 6.66 | 5.28
8 | CC(=O)N1CCC([C@H]2CC(C[C@H]3O[C@H](CO)[C@H](O)[C@H](n4cc(-c5cc(F)c(F)c(F)c5)nn4)[C@H]3O)=NO2)CC1 [Example 3.19, 1-(4-((R)-3-(((2R,3R,4R,5R,6R)-3,5-dihydroxy-6-(hydroxymethyl)-4-(4-(3,4,5-trifluorophenyl)-1H-1,2,3-triazol-1-yl)tetrahydro-2H-pyran-2-yl)methyl)-4,5-dihydroisoxazol-5-yl)piperidin-1-yl)ethan-1-one] | 6.37 | 5.33
9 | CC(=O)N1CCC([C@@H]2CC(C[C@H]3O[C@H](CO)[C@H](O)[C@H](n4cc(-c5cc(F)c(F)c(F)c5)nn4)[C@H]3O)=NO2)CC1 [Example 3.20, 1-(4-((S)-3-(((2R,3R,4R,5R,6R)-3,5-dihydroxy-6-(hydroxymethyl)-4-(4-(3,4,5-trifluorophenyl)-1H-1,2,3-triazol-1-yl)tetrahydro-2H-pyran-2-yl)methyl)-4,5-dihydroisoxazol-5-yl)piperidin-1-yl)ethan-1-one] | 6.62 | 5.73
10 | CO[C@@H]1[C@@H](n2cc(-c3cc(F)c(F)c(F)c3)nn2)[C@@H](O)[C@@H](CO)O[C@@H]1Cc1cc(C2CCN(C(C)=O)CC2)on1 [Example 3.21, 1-(4-(3-(((2R,3R,4S,5R,6R)-5-hydroxy-6-(hydroxymethyl)-3-methoxy-4-(4-(3,4,5-trifluorophenyl)-1H-1,2,3-triazol-1-yl)tetrahydro-2H-pyran-2-yl)methyl)isoxazol-5-yl)piperidin-1-yl)ethan-1-one] | 7.34 | 6.23
11 | CC(=O)O[C@@H]1[C@@H](n2cc(-c3cc(F)c(F)c(F)c3)nn2)[C@@H](O)[C@@H](CO)O[C@@H]1Cc1cc(C2CCN(C(C)=O)CC2)on1 [Example 3.22, (2R,3R,4S,5R,6R)-2-((5-(1-acetylpiperidin-4-yl)isoxazol-3-yl)methyl)-5-hydroxy-6-(hydroxymethyl)-4-(4-(3,4,5-trifluorophenyl)-1H-1,2,3-triazol-1-yl)tetrahydro-2H-pyran-3-yl acetate] | 7.55 | 5.73
12 | CC(=O)O[C@@H]1[C@@H](n2cc(-c3cc(F)c(F)c(F)c3)nn2)[C@@H](O)[C@@H](CO)O[C@@H]1CC1=NO[C@@H](C2CCN(C(C)=O)CC2)C1 [Example 3.24, (2R,3R,4S,5R,6R)-2-(((R)-5-(1-acetylpiperidin-4-yl)-4,5-dihydroisoxazol-3-yl)methyl)-5-hydroxy-6-(hydroxymethyl)-4-(4-(3,4,5-trifluorophenyl)-1H-1,2,3-triazol-1-yl)tetrahydro-2H-pyran-3-yl acetate] | 6.47 | 5.04
13 | CC(=O)O[C@@H]1[C@@H](n2cc(-c3cc(F)c(F)c(F)c3)nn2)[C@@H](O)[C@@H](CO)O[C@@H]1CC1=NO[C@H](C2CCN(C(C)=O)CC2)C1 [Example 3.25, (2R,3R,4S,5R,6R)-2-(((S)-5-(1-acetylpiperidin-4-yl)-4,5-dihydroisoxazol-3-yl)methyl)-5-hydroxy-6-(hydroxymethyl)-4-(4-(3,4,5-trifluorophenyl)-1H-1,2,3-triazol-1-yl)tetrahydro-2H-pyran-3-yl acetate] | 6.77 | 5.61
14 | CCOC(=O)N1CCC(c2cc(C[C@H]3O[C@H](CO)[C@H](O)[C@H](n4cc(-c5cc(F)c(F)c(F)c5)nn4)[C@H]3O)no2)CC1 [Example 3.26, ethyl 4-(3-(((2R,3R,4R,5R,6R)-3,5-dihydroxy-6-(hydroxymethyl)-4-(4-(3,4,5-trifluorophenyl)-1H-1,2,3-triazol-1-yl)tetrahydro-2H-pyran-2-yl)methyl)isoxazol-5-yl)piperidine-1-carboxylate] | 7.17 | 6.03
15 | CCNC(=O)N1CCC(c2cc(C[C@H]3O[C@H](CO)[C@H](O)[C@H](n4cc(-c5cc(F)c(F)c(F)c5)nn4)[C@H]3O)no2)CC1 [Example 3.27, 4-(3-(((2R,3R,4R,5R,6R)-3,5-dihydroxy-6-(hydroxymethyl)-4-(4-(3,4,5-trifluorophenyl)-1H-1,2,3-triazol-1-yl)tetrahydro-2H-pyran-2-yl)methyl)isoxazol-5-yl)-N-ethylpiperidine-1-carboxamide] | 7.49 | 6.06
16 | CS(=O)(=O)N1CCC(c2cc(C[C@H]3O[C@H](CO)[C@H](O)[C@H](n4cc(-c5cc(F)c(F)c(F)c5)nn4)[C@H]3O)no2)CC1 [Example 3.28, (2R,3R,4R,5R,6R)-2-(hydroxymethyl)-6-((5-(1-(methylsulfonyl)piperidin-4-yl)isoxazol-3-yl)methyl)-4-(4-(3,4,5-trifluorophenyl)-1H-1,2,3-triazol-1-yl)tetrahydro-2H-pyran-3,5-diol] | 7.42 | 5.91
17 | CN1CCC(c2cc(C[C@H]3O[C@H](CO)[C@H](O)[C@H](n4cc(-c5cc(F)c(F)c(F)c5)nn4)[C@H]3O)no2)CC1 [Example 3.29, (2R,3R,4R,5R,6R)-2-(hydroxymethyl)-6-((5-(1-methylpiperidin-4-yl)isoxazol-3-yl)methyl)-4-(4-(3,4,5-trifluorophenyl)-1H-1,2,3-triazol-1-yl)tetrahydro-2H-pyran-3,5-diol] | 6.57 | 4.80
18 | CC(C)(C)C(=O)N1CCC(c2cc(C[C@H]3O[C@H](CO)[C@H](O)[C@H](n4cc(-c5cc(F)c(F)c(F)c5)nn4)[C@H]3O)no2)CC1 [Example 3.30, 1-(4-(3-(((2R,3R,4R,5R,6R)-3,5-dihydroxy-6-(hydroxymethyl)-4-(4-(3,4,5-trifluorophenyl)-1H-1,2,3-triazol-1-yl)tetrahydro-2H-pyran-2-yl)methyl)isoxazol-5-yl)piperidin-1-yl)-2,2-dimethylpropan-1-one] | 6.80 | 5.44
19 | CCOC(=O)N1CCC(c2cc(C[C@H]3O[C@H](CO)[C@H](O)[C@H](n4cc(-c5cc(F)c(F)c(F)c5)nn4)[C@H]3OC)no2)CC1 [Example 3.31, ethyl 4-(3-(((2R,3R,4S,5R,6R)-5-hydroxy-6-(hydroxymethyl)-3-methoxy-4-(4-(3,4,5-trifluorophenyl)-1H-1,2,3-triazol-1-yl)tetrahydro-2H-pyran-2-yl)methyl)isoxazol-5-yl)piperidine-1-carboxylate] | 7.14 | 6.07
